Experiments:
α1-adrenoceptors = assay: inhibition of [7-methoxy-3H]prazosin binding to α1-adrenoceptors in rat whole cortical tissue; settings: rat whole cortex, 30 min; for % displacement of radio ligand, α1: at 10^-6 M, [7-methoxy-3H]prazosin, 1 µM; for Ki: [7-methoxy-3H]prazosin 0.1 nM, 30° C.
Description: Whole cortical tissue from the brains of male Charles River CD rats weighing between 150-250 g were homogenised in ice-cold 50 mM Tris-HCl, pH 7.6 (at 25° C.; 1:40 w/v) and centrifuged at 1000 g at 4° C. for 10 minutes. The supernatant was centrifuged at 30,000 g at 4° C. for 10 minutes. The pellet was rehomogenised in 50 mM Tris-HCl, pH 7.6 (1:40 w/v) and centrifuged at 30,000 g at 4° C. for 10 minutes. The final pellet was resuspended in 50 mM Tris-HCl, pH 7.6 (equivalent to 12.5 mg wet weight of tissue/ml) and used immediately in the binding assay. Aliquots (400 μl; equivalent to 5 mg wet weight of tissue/tube) of this suspension were added to tubes containing the ligand (50 μl; 0.1 nM) and distilled water (50 μl; total binding) or phentolamine (50 μl; 5 μM; non-specific binding) or test compound (50 μl; at a single concentration of 10^-6 M or at 10 concentrations ranging from 10^-11 -10^-3 M). The ligand was [7-methoxy-^3 H]prazosin and the mixture was incubated at 30° C. for 30 minutes before the incubation was terminated by rapid filtration.
(§1) The filters were washed with ice-cold Tris-HCl buffer and dried. The filters were punched out into vials, scintillation fluid added and radioactivity determined by liquid scintillation counting. The percentage displacement of specific binding of the tritiated ligand was calculated for the single concentration (10^-6 M) of test compound. Displacement curves were then produced for those compounds which displaced ≥50% of specific binding of the tritiated ligand at 10^-6 M using a range of concentrations of the compound. The concentration which gave 50% inhibition of specific binding (IC50) was obtained from the curve. The inhibition coefficient Ki was then calculated using the formula [formula] in which [ligand] is the concentration of the tritiated ligand used and KD is the equilibrium dissociation constant for the ligand.

5-HT1A receptors = target: T1, 5-HT1A receptors (Rattus norvegicus, UniProt P19327); assay: inhibition of [3H]8-OH-DPAT binding to 5-HT1A receptors in rat hippocampal tissue; settings: rat hippocampus; for Ki: [3H]8-OH-DPAT 2 nM, 25° C., 30 min; for inhibition at 1 µM: at 10^-6 M, [3H]8-OH-DPAT, read-out: % displacement of radio ligand, 5-HT1A
T1 construct: Hippocampal tissue from the brains of male Sprague-Dawley rats; from tissue; host or cells: rat hippocampus membranes
T1 sequence (P19327 1-422): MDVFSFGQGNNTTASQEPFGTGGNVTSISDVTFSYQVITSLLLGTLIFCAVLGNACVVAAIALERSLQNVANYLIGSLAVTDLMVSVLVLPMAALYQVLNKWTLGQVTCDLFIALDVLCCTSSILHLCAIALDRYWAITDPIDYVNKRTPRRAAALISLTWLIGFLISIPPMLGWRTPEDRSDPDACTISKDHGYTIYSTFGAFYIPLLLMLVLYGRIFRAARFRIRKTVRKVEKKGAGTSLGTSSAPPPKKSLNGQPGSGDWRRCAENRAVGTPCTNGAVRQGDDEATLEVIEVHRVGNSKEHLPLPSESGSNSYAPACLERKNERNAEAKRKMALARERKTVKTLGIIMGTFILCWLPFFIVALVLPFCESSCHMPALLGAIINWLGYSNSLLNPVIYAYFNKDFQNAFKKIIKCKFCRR
Description: Hippocampal tissue from the brains of male Sprague-Dawley rats (Charles River; weight range 150-250 g) was homogenised in ice-cold 50 mM Tris-HCl buffer (pH 7.7 when measured at 25° C., 1:40 w/v) and centrifuged at 30,000 g at 4° C. for 10 minutes. The pellet was rehomogenised in the same buffer, incubated at 37° C. for 10 minutes and centrifuged at 30,000 g at 4° C. for 10 minutes. The final pellet was resuspended in 50 mM Tris-HCl buffer (pH 7.7) containing 4 mM CaCl2, 0.1% L-ascorbic acid and 10 μM pargyline hydrochloride (equivalent to 6.25 mg wet weight of tissue/ml) and used immediately in the binding assay. Aliquots (400 μl; equivalent to 2.5 mg wet weight of tissue/tube) of this suspension were added to tubes containing the ligand (50 μl; 2 nM) and distilled water (50 μl total binding) or 5-HT (50 μl; 10 μM; non-specific binding) or test compound (50 μl; at a single concentration of 10^-6 M or at 10 concentrations ranging from 10^-11 -10^-3 M). The ligand was [^3 H]8-hydroxy-2-(dipropylamino)tetralin ([^3 H]8-OH-DPAT) and the mixture was incubated at 25° C. for 30 minutes before the incubation was terminated by rapid filtration.
as §1

D2 dopamine receptors = target: T2, D2 dopamine receptors (Rattus norvegicus, UniProt P61169); assay: inhibition of tritiated (S)-sulpiride binding to D2 dopamine receptors in rat striatal tissue; settings: rat striatum; for Ki: tritiated (S)-sulpiride 1 nM, 4° C., 40 min; for inhibition at 1 µM: at 10^-6 M, tritiated (S)-sulpiride, read-out: % displacement of radio ligand, D2
T2 construct: Striatal tissue from the brains of male Charles River CD rats; from tissue; host or cells: rat striatum membranes
T2 sequence (P61169 whole entry): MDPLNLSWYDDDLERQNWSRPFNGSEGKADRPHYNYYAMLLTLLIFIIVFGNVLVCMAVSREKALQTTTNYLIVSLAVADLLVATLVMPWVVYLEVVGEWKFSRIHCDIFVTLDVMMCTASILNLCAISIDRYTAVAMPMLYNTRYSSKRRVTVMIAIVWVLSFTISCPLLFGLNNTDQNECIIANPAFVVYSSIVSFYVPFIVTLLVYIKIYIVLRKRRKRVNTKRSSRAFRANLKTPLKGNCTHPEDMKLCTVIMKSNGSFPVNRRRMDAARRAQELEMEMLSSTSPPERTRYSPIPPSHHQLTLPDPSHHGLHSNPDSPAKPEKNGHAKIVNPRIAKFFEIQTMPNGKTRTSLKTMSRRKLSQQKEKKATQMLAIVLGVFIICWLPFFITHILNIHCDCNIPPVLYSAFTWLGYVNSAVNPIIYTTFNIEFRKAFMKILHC
Description: Striatal tissue from the brains of male Charles River CD rats weighing between 140-250 g were homogenised in ice-cold 50 mM Tris-HCl buffer (pH 7.7 when measured at 25° C.) and centrifuged at 40,000 g for 10 minutes. The pellet was resuspended in Tris salts buffer (50 mM Tris-HCl buffer containing 120 mM NaCl, 5 mM KCl, 2 mM CaCl2 and 1 mM MgCl2 with the addition of 6 mM ascorbic acid; pH 7.7 when measured at 25° C.), and again centrifuged at 40,000 g for 10 minutes. The final pellet was stored at -80° C. Before each test the pellet was resuspended in Tris salts buffer (equivalent to 2 mg wet weight of tissue/ml). Aliquots (720 μl; equivalent to 1.44 mg wet weight of tissue/tube) of this suspension were then added to tubes containing the ligand (40 μl; 1 nM) and Tris salts buffer (40 μl; total binding) or spiroperidol (40 μl; 10 nM; non-specific binding) or test compound (40 μl; at a single concentration of 10^-6 M or at 6 concentrations ranging from 10^-11 -10^-4 M). The ligand was tritiated (S)-sulpiride and the mixture was incubated at 4° C. for 40 minutes before the incubation was terminated by rapid filtration.
The filters were washed with ice-cold Tris-HCl buffer and dried. The filters were punched out in to vials, scintillation fluid added and were left for about 20 hours before being counted by scintillation spectrophotometry. The percentage displacement of specific binding of the tritiated ligand was calculated for the single concentration (10^-6 M) of test compound. Displacement curves were then produced over a range of concentrations for those compounds which displaced ≥50% of specific binding of the tritiated ligand at 10^-6 M. The concentration which gave a 50% inhibition of specific binding (IC50) was obtained from the curve. The inhibition coefficient Ki was then calculated using the formula [formula] in [ligand] is the concentration of the tritiated ligand used and KD is the 2 equilibrium dissociation constant for the ligand.

## Nc1ncccc1C(=O)NCC1CCN(C[C@H]2COc3ccc(Cl)cc3O2)CC1 [Example 1, (S)-(-)-2-amino-N-{[1-(7-chloro-1,4-benzodioxan-2-ylmethyl)-4-piperidyl]methyl}pyridine-3-carboxamide]
α1-adrenoceptors
  % displacement of radio ligand, α1: 89%
5-HT1A receptors
  Ki: 41.5 nM
D2 dopamine receptors
  Ki: 32.2 nM

## Nc1ncccc1C(=O)NCC1CCN(C[C@H]2COc3cccc(Cl)c3O2)CC1 [Example 2, (S)-2-amino-N-{[1-(8-chloro-1,4-benzodioxan-2-ylmethyl)-4-piperidyl]methyl}-pyridine-3-carboxamide]
α1-adrenoceptors
  % displacement of radio ligand, α1: 100%
5-HT1A receptors
  inhibition at 1 µM: 97%
D2 dopamine receptors
  inhibition at 1 µM: 104%

## Nc1ncccc1C(=O)NCC1CCN(C[C@H]2COc3cccc(F)c3O2)CC1 [Example 3, (S)-(-)-2-amino-N-{[1-(8-fluoro-1,4-benzodioxan-2-ylmethyl)-4-piperidyl]methyl}pyridine-3-carboxamide]
α1-adrenoceptors
  Ki: 5.3 nM
5-HT1A receptors
  Ki: 18 nM
D2 dopamine receptors
  Ki: 32.9 nM

## Nc1ncccc1C(=O)NCC1CCN(CC2COc3ccccc3O2)CC1 (stereo not drawn) [Example 4, 2-amino-N-{[1-(1,4-benzodioxan-2-ylmethyl)-4-piperidyl]methyl}pyridine-3-carboxamide]
α1-adrenoceptors
  % displacement of radio ligand, α1: 89%
5-HT1A receptors
  inhibition at 1 µM: 90%
D2 dopamine receptors
  inhibition at 1 µM: 84%

## Cc1ccc2c(c1)O[C@@H](CN1CCC(CNC(=O)c3cccnc3N)CC1)CO2 [Example 5, (S)-2-amino-N-{[1-(7-methyl-1,4-benzodioxan-2-ylmethyl)-4-piperidyl]methyl}pyridine-3-carboxamide]
α1-adrenoceptors
  Ki: 65 nM
5-HT1A receptors
  Ki: 94 nM
D2 dopamine receptors
  Ki: 55.6 nM

## O=C(NCC1CCN(CC2COc3ccccc3O2)CC1)c1ccccn1 (stereo not drawn) [Example 6, N-{[1-(1,4-benzodioxan-2-ylmethyl)-4-piperidyl]methyl}pyridine-2-carboxamide]
α1-adrenoceptors
  Ki: 21 nM
5-HT1A receptors
  Ki: 27 nM
D2 dopamine receptors
  Ki: 67 nM

## COc1ccc2c(c1)O[C@@H](CN1CCC(CNC(=O)c3cccnc3N)CC1)CO2 [Example 7, (S)-2-amino-N{[1-(7-methoxy-1,4-benzodioxan-2-ylmethyl)-4-piperidyl]methyl}-pyridine-3-carboxamide]
α1-adrenoceptors
  Ki: 104 nM
5-HT1A receptors
  Ki: 38 nM
D2 dopamine receptors
  Ki: 197 nM

## O=C(NCC1CCN(CC2COc3ccccc3O2)CC1)c1cccc2cccnc12 (stereo not drawn) [Example 8, N-{[1-(1,4-benzodioxan-2-ylmethyl)-4-piperidyl]methyl}quinoline-8-carboxamide]
α1-adrenoceptors
  Ki: 8 nM
5-HT1A receptors
  Ki: 12 nM
D2 dopamine receptors
  Ki: 95 nM

## Cc1ncccc1C(=O)NCC1CCN(C[C@H]2COc3cccc(Cl)c3O2)CC1 [Example 9, (S)-N-{[1-(8-chloro-1,4-benzodioxan-2-ylmethyl)-4-piperidyl]methyl}-2-methylpyridine-3-carboxamide]
α1-adrenoceptors
  Ki: 20 nM
5-HT1A receptors
  Ki: 54 nM
D2 dopamine receptors
  Ki: 37 nM

## Nc1ncccc1C(=O)NCC1CCN(CC2COc3ccc(F)cc3O2)CC1 (stereo not drawn) [Example 10, 2-amino-N-{[1-(7-fluoro-1,4-benzodioxan-2-ylmethyl)-4-piperidyl]methyl}pyridine-3-carboxamide]
α1-adrenoceptors
  Ki: 140 nM
5-HT1A receptors
  Ki: 57 nM
D2 dopamine receptors
  Ki: 109 nM

## COc1cccc2c1OC(CN1CCC(CNC(=O)c3cccnc3N)CC1)CO2 (stereo not drawn) [Example 11, 2-amino-N-{[1-(8-methoxy-1,4-benzodioxan-2-ylmethyl)-4-piperidyl]methyl}pyridine-3-carboxamide]
α1-adrenoceptors
  Ki: 18 nM
5-HT1A receptors
  Ki: 19 nM
D2 dopamine receptors
  Ki: 41 nM

## O=C(NCC1CCN(C[C@H]2COc3ccc(Cl)cc3O2)CC1)c1ccccn1 [Example 12, (S)-N-{[1-(7-chloro-1,4-benzodioxan-2-ylmethyl)-4-piperidyl]methyl}pyridine-2-carboxamide]
α1-adrenoceptors
  Ki: 132 nM
5-HT1A receptors
  Ki: 16 nM
D2 dopamine receptors
  Ki: 21 nM

## Cc1cccc2c1O[C@@H](CN1CCC(CNC(=O)c3cccnc3N)CC1)CO2 [Example 13, (S)-2-amino-N-{[1-(8-methyl-1,4-benzodioxan-2-ylmethyl)-4-piperidyl]methyl}pyridine-3-carboxamide]
α1-adrenoceptors
  Ki: 10 nM
5-HT1A receptors
  Ki: 38 nM
D2 dopamine receptors
  Ki: 33 nM

## Cc1ccc(C(=O)NCC2CCN(C[C@H]3COc4ccc(Cl)cc4O3)CC2)c(N)n1 [Example 14, (S)-2-amino-N-{[1-(7-chloro-1,4-benzodioxan-2-ylmethyl)-4-piperidyl]methyl}-6-methylpyridine-3-carboxamide]
α1-adrenoceptors
  Ki: 75 nM
5-HT1A receptors
  Ki: 26 nM
D2 dopamine receptors
  Ki: 43.9 nM

## Nc1ncccc1C(=O)NCC1CCN(C[C@H]2COc3ccccc3O2)CC1 [Example 15, (S)-2-amino-N-{[1-(1,4-benzodioxan-2-ylmethyl)-4-piperidyl]methyl}pyridine-3-carboxamide]
α1-adrenoceptors
  Ki: 17 nM
5-HT1A receptors
  Ki: 40.8 nM
D2 dopamine receptors
  Ki: 64.6 nM

## Nc1ccsc1C(=O)NCC1CCN(CC2COc3ccccc3O2)CC1 (stereo not drawn) [Example 16, 3-amino-N-{[1-(1,4-benzodioxan-2-ylmethyl)-4-piperidyl]methyl}thiophene-2-carboxamide]
α1-adrenoceptors
  Ki: 2 nM
5-HT1A receptors
  Ki: 63 nM
D2 dopamine receptors
  Ki: 68 nM

## Nc1ccsc1C(=O)NCC1CCN(C[C@H]2COc3ccc(Cl)cc3O2)CC1 [Example 17, (S)-3-amino-N-{[1-(7-chloro-1,4-benzodioxan-2-ylmethyl)-4-piperidyl]methyl}thiophene-2-carboxamide]
α1-adrenoceptors
  Ki: 70 nM
5-HT1A receptors
  Ki: 32 nM
D2 dopamine receptors
  Ki: 36 nM

## Cc1ncccc1C(=O)NCC1CCN(C[C@H]2COc3ccc(Cl)cc3O2)CC1 [Example 18, (S)-N-{[1-(7-chloro-1,4-benzodioxan-2-ylmethyl)-4-piperidyl]methyl}-2-methylpyridine-3-carboxamide]
α1-adrenoceptors
  Ki: 298 nM
5-HT1A receptors
  Ki: 83 nM
D2 dopamine receptors
  Ki: 110 nM

— US5935973A, “Heterocyclcarboxamide derivatives and their use as therapeutic agents” (Knoll Aktiengesellschaft, priority 1995, dated 1999)
